The results in this text go back to paper PMC7356297, “Bicyclic Boronates as Potent Inhibitors of AmpC, the Class C β-Lactamase from Escherichia coli” (Biomolecules, 2020).

Several values for one entry are separate records, joined by “and”; a condition that tells them apart may be missing. Equal values may be shown once.

Data set [1] deals with DH5α E. coli containing the pAD7-AmpCEC plasmid. The data set is described as follows: Broth microdilution MIC of ceftazidime alone or with inhibitor, AmpCEC producing strain. The class given is cell-based, Escherichia coli. Here is the method:
(§1) Minimum inhibitory concentrations (MICs) were determined by broth microdilution in triplicate and interpreted using published Clinical and Laboratory Standards Institute (CLSI) guidelines.
(§2) Ceftazidime (CAZ) was tested alone (0.25–256 μg mL^−1) against DH5α Escherichia coli and DH5α E. coli containing the pAD7-AmpCEC plasmid and in combination with CB2, CB3, TAN, and VAB (all tested at a fixed concentration of 4 μg mL^−1) using the DH5α E. coli strain containing the pAD7-AmpCEC plasmid.
For orientation: Dilution methods test growth across graded concentrations, often in twofold steps.

A further data set deals with DH5α Escherichia coli. The data set is described as follows: Broth microdilution MIC of ceftazidime, strain without plasmid. The note with it: read-out: Minimum Inhibitory Concentration Ceftazidime. The class given is cell-based. Here is the method: as §1, §2
Data set [2] addresses T1, AmpC from Escherichia coli (AmpCEC) (Escherichia coli, UniProt P00811).
T1 construct: made in house; host or cells: E. coli W3110 (pAD7 vector)
The data set is described as follows: Steady-state competition kinetics of AmpCEC (100 nM) with fluorescent substrate FC-5 (Kiapp, k2/K). The format is biochemical. The conditions noted are these: for Ki: Kiapp, apparent inhibition constant corrected with KM of FC-5; for kinact/KI: pH 7.5, read-out: k2/K, 100 nM AmpCEC, 5 µM FC-5. Here is the method: (§3) All kinetic measurements were carried out in competition assays using the fluorescent substrate FC-5 [36] under steady-state conditions monitoring hydrolysis, in 100 mM phosphate buffer pH 7.5 supplemented with 0.01% (v/v) Triton X-100 (Assay Buffer). Fluorescence was measured using a PHERAstarFS (BMG Labtech, Aylesbury, United Kingdom) plate-reader, recording emission spectra at λex = 380 nm and λem = 460 nm. IC50s were determined after 10 min incubation time of 500 pM AmpCEC with varying concentrations of inhibitors and assayed using 5 µM FC-5. Nonlinear regression analyses were carried out using GraphPad Prism V. 5.04 (GraphPad Software, San Diego, CA, USA).
As described for avibactam inhibition, the kinetics of bicyclic boronate inhibition of β-lactamases can be described assuming a two-step, reversible inhibition model:(1) E+I → k1 ←k−1 E:I → k2 ←k−2 E−I with E: enzyme; I: inhibitor; k1: association rate constant; k−1: dissociation rate constant; k2: binding rate constant, and k−2: recyclization rate constant.
To obtain the pseudo first-order rate constant kobs and the apparent inhibition constant Kiapp, the rate of FC-5 (5 µM) hydrolysis by AmpCEC (100 nM) was measured in the presence of varying concentrations of the inhibitor.
Plotting the resultant kobs values against the inhibitor concentration [I] (Figure S1b) and fitting to Equation (3) gives the apparent second-order rate constant (k2/K’) (3) kobs=k2+k2/K^′∗ I with K’ representing the equilibrium coefficient of AmpCEC inhibition in the presence of FC-5 in the set concentration of 5 µM.
This can then be corrected using the Michaelis constant (KM) of FC-5 for AmpCEC and the FC-5 concentration [S] according to Equation (4) to give the second-order rate constant (k2/K):(4) k2/K=k2/K^′∗ S/KM+1
The same data were used to determine the apparent inhibition constant Kiapp. The reciprocals of the initial rates were plotted against inhibitor concentration (Figure S1a), giving a straight line for which the value of the intercept divided by the slope gives Kiapp’. From this, Kiapp can be obtained after correction with the KM for FC-5 according to Equation (5):(5) Kiapp=Kiapp’/1+S/KM

For data set [3], the target named is T1, AmpC from Escherichia coli (AmpCEC). The class given is biochemical. The conditions noted are these: half-life of the enzyme-inhibitor complex, ln2/koff. The procedure: as §3
Off rates (k-2 or koff) were measured using the jump-dilution method (Figure S1c). AmpCEC (1 µM) was incubated with the respective inhibitor (10 µM for TAN, CB2 and CB3, and 100 µM for VAB) for 30 min at room temperature, then diluted 100,000 fold in the Assay Buffer (final enzyme concentration: 10 pM) and immediately assayed with 25 µM FC-5. The data were fitted to Equation (2) with V0 in this case representing the velocity of the no-enzyme control and VS representing the initial velocity of uninhibited enzyme.
The half-life of the enzyme-inhibitor complex t1/2 is given by Equation (6):(6) t1/2=ln2/koff

Data set [4] shares this target. The data set is described as follows: IC50 determination, 500 pM AmpCEC, 5 µM FC-5, 10 min pre-incubation. The format is biochemical. The conditions noted are these: pIC50, 500 pM AmpCEC, 5 µM FC-5, 10 min inhibitor pre-incubation at room temperature. Here is the method:
as §3

T1 sequence (P00811 20-377): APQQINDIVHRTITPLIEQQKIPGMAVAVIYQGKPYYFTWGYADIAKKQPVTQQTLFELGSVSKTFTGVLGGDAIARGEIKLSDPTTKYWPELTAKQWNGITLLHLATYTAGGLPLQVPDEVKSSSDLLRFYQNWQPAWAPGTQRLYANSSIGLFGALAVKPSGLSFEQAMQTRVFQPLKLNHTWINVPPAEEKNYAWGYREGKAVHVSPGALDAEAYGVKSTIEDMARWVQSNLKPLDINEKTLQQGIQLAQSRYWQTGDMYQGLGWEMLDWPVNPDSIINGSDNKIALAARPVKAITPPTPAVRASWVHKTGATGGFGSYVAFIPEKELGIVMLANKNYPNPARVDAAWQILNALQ

As for `CC(C)(O/N=C(\C(=O)N[C@@H]1C(=O)N2C(C(=O)[O-])=C(C[n+]3ccccc3)CS[C@H]12)c1csc(N)n1)C(=O)O` [CAZ, Ceftazidime], the MIC worked out at 256 µg/mL in data set [1] (Escherichia coli, read-out: Minimum Inhibitory Concentration Ceftazidime) and 1 µg/mL in the data set on DH5α Escherichia coli.
`NCCN[C@H]1CC[C@H](CC(=O)N[C@H]2Cc3cccc(C(=O)O)c3OB2O)CC1` [TAN, taniborbactam]: in data set [2] (100 nM AmpCEC, 5 µM FC-5), the Ki is 4000 nM and 3730 nM. Moreover, the kinact/KI in data set [2] (second-order rate constant) is 85600 ± 9200 M⁻¹ s⁻¹. For the same compound, the t1/2 in data set [3] is 4.55 ± 0.91 min. In data set [4], the IC50 (commonly the point on the concentration scale where inhibition reaches its midpoint) was 29.5 nM.
As for `O=C(O)C[C@@H]1CC[C@H](NC(=O)Cc2cccs2)B(O)O1` [VAB, vaborbactam], the k2/K in data set [2] (100 nM AmpCEC, 5 µM FC-5, second-order rate constant) is given as 6.55 ± 0.46 M^−1 s^−1 × 10^3. The Ki in data set [2] (100 nM AmpCEC, 5 µM FC-5) is 19000 nM and 19100 nM. Besides, the kinact/KI in data set [2] (second-order rate constant) was approximately 7000 M⁻¹ s⁻¹. The compound further gave a t1/2 in data set [3] of 16.8 ± 0.7 min. In addition, in data set [4], the IC50 was 501 nM and 479 nM.
Take `O=C(O)c1cccc2c1OB(O)C(SCc1ccccc1)C2` (centres unmarked) [CB3]: in data set [1] (CAZ in combination with the inhibitor at a fixed concentration of 4 µg mL^−1, DH5α pAD7 AmpCEC), the “Minimum Inhibitory Concentration Ceftazidime (CAZ + inhibitor)” value is 4 µg/mL. Further, the Ki in data set [2] (100 nM AmpCEC, 5 µM FC-5) is 1000 nM and 1160 nM. Also, in data set [2] (second-order rate constant), the kinact/KI amounted to 224000 ± 21000 M⁻¹ s⁻¹. Besides, the t1/2 in data set [3] was found to be 0.55 ± 0.34 min. Besides, in data set [4], the IC50 is 29.5 nM.
Regarding `NCc1ccc(C(=O)N[C@H]2Cc3cccc(C(=O)O)c3OB2O)cc1` [CB2], in data set [2] (100 nM AmpCEC, 5 µM FC-5), the Ki is 3000 nM and 3260 nM. In addition, the kinact/KI in data set [2] (second-order rate constant) was found to be 81000 ± 6400 M⁻¹ s⁻¹. In data set [3], this compound returned a t1/2 of 4.18 ± 0.41 min. The 50% inhibitory concentration (IC50) in data set [4] was 31.6 nM and 32.4 nM.
